In the NIST ThermoML archive (doi:10.1016/j.jct.2013.09.010):
Where “and” joins values, the source holds several entries; their conditions need not be identical. Equal entries are not always repeated. ± gives the expanded uncertainty stated by the source.

What was measured:
[1] = molar heat capacity at constant pressure; conditions: 101 kPa, Liquid, Small sample (50 mg) DSC
[2] = Liquid, Vibrating tube method

CCC(=O)[O-].C[NH2+]CCO [2-hydroxy-N-methylethanaminium propionate]
[1]
Conditions	molar heat capacity at constant pressure
287.15 K	322.8 ± 14 J/K/mol
288.15 K	324.3 ± 14 J/K/mol and 323.1 ± 14 J/K/mol and 322.8 ± 14 J/K/mol
289.15 K	324.5 ± 14 J/K/mol [middle of 4 runs]
290.15 K	324.8 ± 14 J/K/mol [middle of 5 runs]
291.15 K	324.9 ± 14 J/K/mol [middle of 5 runs]
292.15 K	325.7 ± 14 J/K/mol [middle of 5 runs]
293.15 K	326.1 ± 14 J/K/mol [middle of 5 runs]
294.15 K	326.6 ± 14 J/K/mol [middle of 4 runs]
295.15 K	327 ± 14 J/K/mol [middle of 4 runs]
296.15 K	327.2 ± 14 J/K/mol [middle of 4 runs]
297.15 K	327.5 ± 14 J/K/mol [middle of 5 runs]
298.15 K	327.9 ± 14 J/K/mol [middle of 4 runs]
299.15 K	328.2 ± 14 J/K/mol [middle of 5 runs]
300.15 K	328.7 ± 14 J/K/mol [middle of 5 runs]
301.15 K	329.1 ± 14 J/K/mol [middle of 5 runs]
302.15 K	329.4 ± 14 J/K/mol [middle of 5 runs]
303.15 K	329.7 ± 14 J/K/mol [middle of 5 runs]
304.15 K	329.9 ± 14 J/K/mol [middle of 4 runs]
305.15 K	330 ± 14 J/K/mol [middle of 4 runs]
306.15 K	330.7 ± 14 J/K/mol and 330.2 ± 14 J/K/mol and 329.6 ± 14 J/K/mol
307.15 K	329.9 ± 14 J/K/mol
308.15 K	330.2 ± 14 J/K/mol
309.15 K	330.5 ± 14 J/K/mol
310.15 K	330.9 ± 14 J/K/mol
311.15 K	331.2 ± 14 J/K/mol
312.15 K	331.6 ± 14 J/K/mol
313.15 K	332.1 ± 14 J/K/mol
314.15 K	332.4 ± 14 J/K/mol
315.15 K	332.7 ± 14 J/K/mol
316.15 K	332.8 ± 14 J/K/mol
317.15 K	333 ± 14 J/K/mol
318.15 K	333.1 ± 14 J/K/mol
319.15 K	333.4 ± 14 J/K/mol
320.15 K	333.6 ± 14 J/K/mol
321.15 K	333.9 ± 14 J/K/mol
322.15 K	334 ± 14 J/K/mol
323.15 K	334.5 ± 14 J/K/mol
324.15 K	334.9 ± 14 J/K/mol
325.15 K	335.4 ± 14 J/K/mol
326.15 K	335.8 ± 14 J/K/mol

mass density [kg/m3], [2]
Conditions	100 kPa	2000 kPa	3000 kPa	5000 kPa	10000 kPa	15000 kPa	20000 kPa	25000 kPa
298.15 K	1065.75 ± 2	1066.51 ± 2	1066.95 ± 2	1067.8 ± 2	1069.86 ± 2	1071.89 ± 2	1073.87 ± 2	1075.79 ± 2
303.15 K	1062.59 ± 2	1063.37 ± 2	1063.82 ± 2	1064.69 ± 2	1066.79 ± 2	1068.87 ± 2	1070.88 ± 2	1072.86 ± 2
308.15 K	1059.41 ± 2	1060.21 ± 2	1060.67 ± 2	1061.55 ± 2	1063.7 ± 2	1065.82 ± 2	1067.88 ± 2	1069.9 ± 2
313.15 K	1056.21 ± 2	1057.03 ± 2	1057.51 ± 2	1058.4 ± 2	1060.6 ± 2	1062.76 ± 2	1064.86 ± 2	1066.92 ± 2
318.15 K	1052.99 ± 2	1053.83 ± 2	1054.32 ± 2	1055.23 ± 2	1057.47 ± 2	1059.68 ± 2	1061.82 ± 2	1063.93 ± 2
323.15 K	1049.76 ± 2	1050.61 ± 2	1051.11 ± 2	1052.04 ± 2	1054.32 ± 2	1056.58 ± 2	1058.76 ± 2	1060.91 ± 2
328.15 K	1046.5 ± 2	1047.37 ± 2	1047.89 ± 2	1048.84 ± 2	1051.16 ± 2	1053.47 ± 2	1055.68 ± 2	1057.87 ± 2
333.15 K	1043.23 ± 2	1044.11 ± 2	1044.64 ± 2	1045.61 ± 2	1047.97 ± 2	1050.33 ± 2	1052.59 ± 2	1054.82 ± 2
338.15 K	1039.93 ± 2	1040.84 ± 2	1041.38 ± 2	1042.36 ± 2	1044.77 ± 2	1047.17 ± 2	1049.47 ± 2	1051.74 ± 2
343.15 K	1036.62 ± 2	1037.54 ± 2	1038.1 ± 2	1039.1 ± 2	1041.55 ± 2	1043.99 ± 2	1046.33 ± 2	1048.65 ± 2
348.15 K	1033.29 ± 2	1034.23 ± 2	1034.8 ± 2	1035.81 ± 2	1038.3 ± 2	1040.8 ± 2	1043.17 ± 2	1045.54 ± 2
353.15 K	1029.94 ± 2	1030.9 ± 2	1031.48 ± 2	1032.51 ± 2	1035.04 ± 2	1037.58 ± 2	1040 ± 2	1042.4 ± 2
358.15 K	1026.57 ± 2	1027.55 ± 2	1028.14 ± 2	1029.19 ± 2	1031.76 ± 2	1034.35 ± 2	1036.8 ± 2	1039.25 ± 2

CCCCC(=O)[O-].C[NH2+]CCO [2-hydroxy-N-methylethanaminium pentanoate]
[1]
Conditions	molar heat capacity at constant pressure
283.15 K	384.8 ± 16 J/K/mol
287.15 K	396.1 ± 17 J/K/mol and 394.2 ± 17 J/K/mol
288.15 K	395.6 ± 17 J/K/mol [middle of 5 runs]
289.15 K	396 ± 17 J/K/mol [middle of 4 runs]
290.15 K	396.8 ± 17 J/K/mol [middle of 4 runs]
291.15 K	397.4 ± 17 J/K/mol [middle of 4 runs]
292.15 K	397.9 ± 17 J/K/mol [middle of 4 runs]
293.15 K	397.7 ± 17 J/K/mol [middle of 5 runs]
294.15 K	398.4 ± 17 J/K/mol [middle of 4 runs]
295.15 K	399 ± 17 J/K/mol [middle of 4 runs]
296.15 K	399.3 ± 17 J/K/mol and 397.9 ± 17 J/K/mol and 400.7 ± 17 J/K/mol
297.15 K	400 ± 17 J/K/mol [middle of 4 runs]
298.15 K	400.6 ± 17 J/K/mol [middle of 4 runs]
299.15 K	402.3 ± 17 J/K/mol and 401.1 ± 17 J/K/mol and 399.5 ± 17 J/K/mol
300.15 K	401.8 ± 17 J/K/mol [middle of 4 runs]
301.15 K	402.3 ± 17 J/K/mol [middle of 4 runs]
302.15 K	402.7 ± 17 J/K/mol [middle of 4 runs]
303.15 K	402.3 ± 17 J/K/mol [middle of 5 runs]
304.15 K	403.2 ± 17 J/K/mol [middle of 4 runs]
305.15 K	403.6 ± 17 J/K/mol [middle of 4 runs]
306.15 K	405 ± 17 J/K/mol and 403 ± 17 J/K/mol and 402.3 ± 17 J/K/mol
307.15 K	402.7 ± 17 J/K/mol
308.15 K	401.6 ± 17 J/K/mol and 403 ± 17 J/K/mol
309.15 K	403.4 ± 17 J/K/mol
310.15 K	403.8 ± 17 J/K/mol
311.15 K	404.3 ± 17 J/K/mol
312.15 K	404.6 ± 17 J/K/mol
313.15 K	405 ± 17 J/K/mol and 405.2 ± 17 J/K/mol
314.15 K	405.5 ± 17 J/K/mol
315.15 K	405.7 ± 17 J/K/mol
316.15 K	406.1 ± 17 J/K/mol
317.15 K	406.1 ± 17 J/K/mol
318.15 K	408.9 ± 17 J/K/mol and 406.4 ± 17 J/K/mol
319.15 K	406.8 ± 17 J/K/mol
320.15 K	407.1 ± 17 J/K/mol
321.15 K	407.5 ± 17 J/K/mol
322.15 K	407.8 ± 17 J/K/mol
323.15 K	412.8 ± 18 J/K/mol and 408.2 ± 17 J/K/mol
324.15 K	408.5 ± 17 J/K/mol
325.15 K	408.9 ± 17 J/K/mol
328.15 K	416.7 ± 18 J/K/mol
333.15 K	420.6 ± 18 J/K/mol

mass density [kg/m3], [2]
Conditions	298.15 K	308.15 K	318.15 K	328.15 K	338.15 K	348.15 K	358.15 K
100 kPa	1009.33 ± 2	1002.78 ± 2	996.28 ± 2	989.85 ± 2	983.48 ± 2	977.17 ± 2	970.92 ± 2
5000 kPa	1011.62 ± 2	1005.23 ± 2	998.89 ± 2	992.6 ± 2	986.35 ± 2	980.15 ± 2	974 ± 2
10000 kPa	1014.08 ± 2	1007.73 ± 2	1001.45 ± 2	995.24 ± 2	989.11 ± 2	983.05 ± 2	977.05 ± 2
15000 kPa	1016.41 ± 2	1010.14 ± 2	1003.96 ± 2	997.85 ± 2	991.83 ± 2	985.88 ± 2	980.01 ± 2
20000 kPa	1018.67 ± 2	1012.49 ± 2	1006.39 ± 2	1000.37 ± 2	994.43 ± 2	988.57 ± 2	982.79 ± 2
25000 kPa	1020.85 ± 2	1014.74 ± 2	1008.72 ± 2	1002.79 ± 2	996.97 ± 2	991.23 ± 2	985.59 ± 2
